How the values were obtained:
PAC1 receptor = target: T1, PAC1 receptor (Homo sapiens, UniProt P41586); conditions: disclosed in Patent Literature 2 (WO 2019/065794); cited from earlier work
T1 sequence (P41586 21-468): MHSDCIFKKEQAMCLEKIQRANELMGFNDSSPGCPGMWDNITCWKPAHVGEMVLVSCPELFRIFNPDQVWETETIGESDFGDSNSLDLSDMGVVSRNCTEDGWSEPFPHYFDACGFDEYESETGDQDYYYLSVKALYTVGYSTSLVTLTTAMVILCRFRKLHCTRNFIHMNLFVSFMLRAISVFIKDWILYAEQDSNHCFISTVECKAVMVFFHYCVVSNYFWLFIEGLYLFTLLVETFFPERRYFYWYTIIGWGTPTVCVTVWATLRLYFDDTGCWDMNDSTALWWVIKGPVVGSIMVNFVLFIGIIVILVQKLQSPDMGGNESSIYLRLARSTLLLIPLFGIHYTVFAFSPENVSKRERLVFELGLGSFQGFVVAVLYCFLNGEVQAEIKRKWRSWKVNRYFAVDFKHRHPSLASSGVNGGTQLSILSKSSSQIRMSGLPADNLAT

normal mice [1] = assay: Spontaneous motor activity in normal mice (open field test); assay type: in vivo, mouse; conditions: i.p. PA-915 30 mg/kg, ketamine 20 mg/kg, fluoxetine 20 mg/kg, 30 min before vs 30 min after administration
Protocol: (1) The effects of PA-915, ketamine and the existing drug fluoxetine on normal mice were evaluated by an open field test (test to measure spontaneous locomotion in a novel environment by exploiting the properties of mice to do exploratory behavior in such a novel environment, and using a 45 cm×45 cm box of 30 cm in height).
Male C57BL/6J mice (8 to 12 weeks old) were placed in the box (illuminance: 100 lx) and allowed to freely explore the box for 60 minutes. Then, a vehicle (V: 10% DMSO solution; dissolved in saline; n=8), PA-915 (PA: 30 mg/kg; n=9), ketamine (K: 20 mg/kg; n=8) or fluoxetine (F: 20 mg/kg; n=11) was intraperitoneally administered thereto (0.1 mL/10 g). Spontaneous motor activity was measured by using the total distances traveled for 30 minutes before administration and for 30 minutes after administration as indexes. The data was indicated by mean±standard error. **P<0.01; *P<0.05 (Two-way ANOVA followed by Tukey-Kramer test).

normal mice [2] = assay: Prepulse inhibition (PPI) test in normal mice; assay type: in vivo, mouse; conditions: i.p. PA-915 30 mg/kg, ketamine 20 mg/kg
Protocol: A vehicle (V: 10% DMSO solution; dissolved in saline; n=13), PA-915 (PA: 30 mg/kg; n=10) or ketamine (K: 20 mg/kg; n=15) was intraperitoneally administered (0.1 mL/10 g) to male C57BL/6J mice (8 to 12 weeks old), which were then acclimatized to 65 dB background noise for 5 minutes in the apparatus. The mice were randomly stimulated 20 times with 50-msec 120 dB startle sound or with 20-msec 73 dB, 77 dB, and 81 dB prepulse sounds and 50-msec 120 dB startle sound 50 msec after each prepulse sound for 30 minutes from the completion of acclimatization. In this respect, the ratio of PPI was calculated according to [(Average startle amplitude without prepulse)−(Average startle amplitude of trial with prepulse)]/(Average startle amplitude without prepulse)×100. The data was indicated by mean±standard error. **P<0.01; *P<0.05 (One-way ANOVA followed by Tukey-Kramer test).

normal mice [3] = assay: Radial maze test in normal mice; assay type: in vivo, mouse; conditions: i.p. PA-915 30 mg/kg, ketamine 20 mg/kg, 30 minutes later, Day 10
Protocol: (3) The effects of PA-915 and ketamine on normal mice were evaluated by a radial maze test (test to evaluate spatial working memory by exploiting the foraging behavior of mice, and using an apparatus having 40 cm long, 10 cm wide and 12 cm high arms radially arranged in 8 directions).
On Day 0, male C57BL/6J mice (8 weeks old) were acclimatized to the apparatus by free exploration for 10 minutes in the apparatus in a laboratory (illuminance: 200 lx). On Days 1 and 2, the mice were allowed to explore only correct arms baited with a reward (food pellets, 5 mg) for 10 minutes. On Days 3 to 9, the mice were allowed to explore all the arms for 5 minutes at maximum until the mice finished the reward while the ends of the correct arms were baited with the reward. On Day 10, a vehicle (V: 10% DMSO solution; dissolved in saline; n=10), PA-915 (PA: 30 mg/kg; n=10) or ketamine (K: 20 mg/kg; n=10) was intraperitoneally administered thereto (0.1 mL/10 g). The mice were allowed to freely explore the maze from 30 minutes later, and the number of entries to the arms without the reward (the number of errors) was measured. During the test period, the absence of marked change in the body weights of the mice by dietary restriction was confirmed. The data was indicated by mean±standard error. **P<0.01 (One-way ANOVA followed by Tukey-Kramer test).

[4] = system: plasma corticosterone level; assay: Repeated corticosterone administration, plasma corticosterone level (ELISA); assay type: in vivo, mouse; conditions: male mice, corticosterone 20 mg/kg s.c. 21 days; single i.p. PA-915 30 mg/kg, ketamine 20 mg/kg; next day
Protocol: A vehicle (0.5% carboxymethylcellulose solution) or corticosterone (20 mg/kg) was subcutaneously administered (0.1 mL/10 g) to male C57BL/6J mice (7 weeks old) for 21 days. A vehicle (10% DMSO solution; dissolved in saline; n=4), PA-915 (30 mg/kg; n=4) or ketamine (20 mg/kg; n=4) was intraperitoneally administered thereto (0.1 mL/10 g) 3 hours after administration on the 21st day. On the next day, the mice were subjected to the forced swim test and then decapitated, and systemic circulating blood was collected. The plasma corticosterone level was measured using Corticosterone ELISA kit from Cayman Chemical Company. Mice given the vehicle by repeated administration without repeated corticosterone administration were used as a control (n=4). The data was indicated by mean±standard error. **P<0.01 (One-way ANOVA followed by Tukey-Kramer test).

| SMILES | PAC1 receptor antagonistic action (PAC1 receptor) | change in spontaneous motor activity (total distance traveled) (normal mice [1]) | influence on prepulse inhibition (PPI ratio) (normal mice [2]) | influence on spatial working memory (number of errors, radial maze) (normal mice [3]) | effect on plasma corticosterone level [4] |
| --- | --- | --- | --- | --- | --- |
| C=CCOc1ccc(C2CC(=O)Nc3nc(N)[nH]c(=O)c32)cc1OC (stereo not drawn) [PA-8] | PAC1 receptor antagonistic action | – | – | – | – |
| O=C(NCCc1c[nH]cn1)C1CC(=O)N(c2n[nH]c3ccccc23)C1 (stereo not drawn) [PA-9] | PAC1 receptor antagonistic action | – | – | – | – |
| CNC1(c2ccccc2Cl)CCCCC1=O (stereo not drawn) [ketamine] | – | increase in spontaneous motor activity | caused prepulse inhibition deficits | decreased spatial cognitive function | decreased the plasma corticosterone level |

From patent US12458643B2, “Antidepressant/anxiolytic drug in which PAC1 receptor antagonist is used” (KAGOSHIMA UNIVERSITY, priority 2020, dated 2025)
